PMC11555261, “Targeting USP11 regulation by a novel lithium-organic coordination compound improves neuropathologies and cognitive functions in Alzheimer transgenic mice” (EMBO Molecular Medicine, 2024)

Molecular target: T1, USP11 (recombinant USP11 protein) (Homo sapiens, UniProt P51784)
T1 construct: commercial recombinant human protein from Sf9 insect cells; His tag implied by RED-tris-NTA labelling
Assay: microscale thermophoresis
Assay type: binding

T1 sequence (P51784 whole entry): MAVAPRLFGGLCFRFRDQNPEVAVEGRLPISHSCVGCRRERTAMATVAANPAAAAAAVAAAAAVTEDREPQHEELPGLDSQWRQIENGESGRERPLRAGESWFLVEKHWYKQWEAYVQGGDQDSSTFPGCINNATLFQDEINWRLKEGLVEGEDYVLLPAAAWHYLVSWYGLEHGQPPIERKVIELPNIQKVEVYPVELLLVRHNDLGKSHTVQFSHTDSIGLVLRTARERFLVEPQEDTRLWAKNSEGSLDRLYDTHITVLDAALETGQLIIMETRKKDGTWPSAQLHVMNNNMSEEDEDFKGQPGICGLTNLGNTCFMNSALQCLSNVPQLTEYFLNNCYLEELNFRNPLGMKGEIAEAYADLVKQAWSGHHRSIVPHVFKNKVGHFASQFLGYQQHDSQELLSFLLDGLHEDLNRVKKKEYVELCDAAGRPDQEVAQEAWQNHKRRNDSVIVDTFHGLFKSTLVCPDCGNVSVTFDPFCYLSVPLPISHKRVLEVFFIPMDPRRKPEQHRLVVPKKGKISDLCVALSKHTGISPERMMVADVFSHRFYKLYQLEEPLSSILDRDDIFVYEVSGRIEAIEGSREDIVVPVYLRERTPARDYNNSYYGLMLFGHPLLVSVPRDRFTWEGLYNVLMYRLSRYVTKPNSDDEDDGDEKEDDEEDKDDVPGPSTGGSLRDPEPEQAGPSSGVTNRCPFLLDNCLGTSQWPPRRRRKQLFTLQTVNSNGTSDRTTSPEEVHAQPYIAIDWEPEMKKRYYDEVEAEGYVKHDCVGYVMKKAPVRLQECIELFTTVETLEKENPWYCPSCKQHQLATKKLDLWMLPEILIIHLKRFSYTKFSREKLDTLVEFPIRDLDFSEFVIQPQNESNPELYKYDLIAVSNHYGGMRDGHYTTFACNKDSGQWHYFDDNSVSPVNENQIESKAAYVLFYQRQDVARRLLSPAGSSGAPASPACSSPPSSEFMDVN

- Kd: 43.4 µM
SMILES: O=C(O)[C@@H]1CCCN1 [IsoLiPro]
